Experimental data published in patent US20130143902A1, “COMPOSITIONS AND METHODS OF TREATING A PROLIFERATIVE DISEASE WITH A QUINAZOLINONE DERIVATIVE” (GILEAD CALISTOGA LLC, priority 2011, published 2013).

Key:
PTEN null T-ALL = test: Diseased Lck/PTEN^fl/fl mice with PTEN null T-ALL; type: in vivo
Protocol: Mouse whole blood was incubated with appropriate antibodies and processed using the BD Bioscience BD FACS Lysing Solution according to the manufacturer's instructions. Immediately after lysis, cells were permeabilized with 0.025% Tween-20 in lysing solution for 15 minutes, then incubated with Ki67 antibodies. Single cell suspensions of thymocytes were isolated and stained with the appropriate antibodies as described in Swat, W. et al., Essential role of PI3 Kdelta and PI3 Kgamma in thymocyte survival, Blood 107, 2415-2422 (2006).
All mice were kept in specific pathogen-free facility at Columbia University Medical Center. All procedures were performed in accordance with the guidelines of the Institutional Animal Care and Use Committee. Lck-cre, NOD.Cg-Prkdc^scid Il2rg^tmlWjl/Sz and Gt(ROSA)26Sor^tml(Luc)Kael/J mice were obtained from the Jackson Laboratory. Mice deficient for PTEN in the T-cell lineage were generated by crossing Lck-cre with floxed PTEN. P110γ^−/− and p110δ^−/− mice as described in Swat, W. et al., Essential role of PI3 Kdelta and PI3 Kgamma in thymocyte survival, Blood 107, 2415-2422 (2006). The animals were intercrossed with Lck-cre/PTEN^fl/fl animals to generate mice homozygous mutant for either p110γ or p110δ and PTEN or homozygous mutant for p110γ, 110δ, and PTEN.
Lck/PTEN^fl/fl mice were crossed with the mice having a luciferase cDNA, preceded by a LoxP-stop-LoxP cassette was introduced into the ubiquitously expressed ROSA26 locus. […] The results are consistent with the reduction in whole blood cells and CD4 single positive population of tumor cells.
Lck/PTEN^fl/fl mice having T-ALL were administered with Compound B at an oral dose of 10 mg/kg every 8 hours or DMSO vehicle for a period of 7 days. […] Compound B extended the median survival to 45 days compared to 7.5 days for the vehicle group (data not shown).
Diseased Lck/PTEN^fl/fl mice (i.e. Lck/PTEN^fl/fl mice diagnosed with T-ALL) were treated with Compounds B for a period of 7 days. Mice were examined for sequential blood counts, peripheral smears, and flow cytometric analyses. […] Forward scatter (FSC) and Ki67 staining were indicators of cell size and proliferation, respectively; and apoptosis was detected by assessing the […] population after PI staining.
PTEN^fl/fl mice were crossed with the mice having a luciferase cDNA, preceded by a LoxP-stop-LoxP cassette was introduced into the ubiquitously expressed ROSA26 locus. Progeny were then crossed with Lck-cre transgenics to delete PTEN in T-cell progenitors and induce expression of luciferase. Imaging on T-ALL tumor bearing mice was performed at Day 0 and 4 after treatment of Compound B or vehicle.

CCRF-CEM cells [1] = test: Proliferation and apoptosis of CCRF-CEM cells; type: cell-based; conditions: 1, 2.5, or 5 μM, within 24 hours, persisted 4 days
Protocol: CCRF-CEM cells were obtained from ATCC and grown in RPMI-1640 medium containing 10% FBS and antibiotics.
Cell counts for mice thymii were determined as described in Swat, W. et al., Essential role of PI3 Kdelta and PI3 Kgamma in thymocyte survival, Blood 107, 2415-2422 (2006). Cell proliferation of untransfected or shRNA transfected CCRF-CEM cells was followed by cell counting of samples in triplicate using a hemocytometer.
Cells were stained with APC-conjugated Annexin-V (BD Biosciences) in Annexin Binding Buffer (Miltyeni Biotec) and analyzed by flow cytometry.
CCRF-CEM cells, a PTEN null acute lymphoblastoid leukemia cell line, were treated with Compound B of 1, 2.5, or 5 μM or control of DMSO vehicle for a period of 4 days.

CCRF-CEM cells [2] = test: Immunoblot of signaling and pro-apoptotic pathways in CCRF-CEM cells; type: cell-based
Protocol: Cell lysates (from cell lines or thymocytes) were prepared on ice in M-PER Mammalian Protein Extraction reagent (Pierce) containing a cocktail of protease and phosphatase inhibitors as described in Swat, W. et al., Essential role of PI3 Kdelta and PI3 Kgamma in thymocyte survival, Blood 107, 2415-2422 (2006). Equal amounts of total protein from lysates were separated using SDS-PAGE, transferred to PVDF membrane (Immobilon-P, Millipore). Membranes were incubated overnight incubation with appropriate primary antibodies. Bound antibodies were visualized with HRP-conjugated secondary antibodies and ECL chemistry (SuperPico West, Pierce).
The ability of Compound B treatment to interfere with proapoptotic effectors such as the BH3-only pro-apoptotic protein BAD and to repress the expression of BIM was also examined. CCRF-CEM cells were treated with Compound B ranging from 0, 0.25, 0.5, 1.0, 2.5, 5.0 and 10 μM.

CCRF-CEM xenografts = test: Subcutaneous CCRF-CEM xenograft, bioluminescence; type: in vivo, mice; conditions: 10 mg/kg for 4 days, subcutaneous tumors
Protocol: Luminescent CCRF-CEM (CEM-luc) cells were generated by lentiviral infection with FUW-luc and selection with neomycin. Luciferase expression was verified with the Dual-Luciferase Reporter Assay kit (Promega). CEM-luc cells (2.5×10^6) embedded in Matrigel (BD Biosciences) were injected in the flank of NOD.Cg-Prkdc^scid Il2rg^tmlWjl/Sz mice. After 1 week, mice were treated by oral gavage with vehicle (0.5% methyl cellulose, 0.1% Tween-80) or compound every 8 hours daily for 4 days. Mice were anesthetized by isoflurane inhalation […] of D-luciferin ([…], Xenogen). Photonic emission was imaged with the In Vivo Imaging System (IVIS, Xenogen). Tumor bioluminescence was quantified by integrating the photonic flux (photons per second) through a region encircling each tumor using the LIVING IMAGES software package (Xenogen).
(§1) To assess the in vivo relevance of these observations, mice with subcutaneous or intravenous CCRF-CEM cells were treated with either Compound B or DMSO vehicle. In the subcutaneous xenographs, luciferase expressing CCRF-CEM cells were injected into the flanks of immunodeficient mice and allowed to grow for 1 week before administering vehicle control or 10 mg/kg of Compound B for a period of 4 days. In the intravenous xenographs, treatment commenced 3-day post-injection of tumor cells for a period of 7 days.

CCRF-CEM xenograft = test: Intravenous (systemic) CCRF-CEM xenograft, survival; type: in vivo, mice; conditions: treatment for 7 days from 3 days post-injection; vehicle control 23 days
Protocol: CCRF-CEM cells (5×10^6) were injected intravenously in fourteen NOD.Cg-Prkdc^scid Il2rg^tmlWjl/Sz mice. After 3 days, mice were segregated into two groups that received compound or vehicle for 7 days. Mice in both groups were then followed until moribund and euthanized.
as §1

primary T-ALL tumors = test: Viability of primary T-ALL tumors; type: cell-based, human; conditions: 1.0, 2.5, and 5.0 μM, 72 hours
Protocol: Cryopreserved samples from the Columbia Presbyterian Hospital, the Erasmus MC-Sophia Children's Hospital, and the University of Padua were used. All samples were collected with informed consent and supervised by the institutes' review boards and the Acute Lymphoblastic Leukemia Strategic Scientific Committee.
For primary T-ALL samples, cell viability was determined using the BD Cell Viability kit (BD Biosciences) and fluorescent counting beads as previously described in Armstrong, F. et al., NOTCH is a key regulator of human T-cell acute leukemia initiating cell activity, Blood 113, 1730-1740 (2009). Cells were plated with MS5-DL1 stroma cells. After 72 hours following treatment, cells were harvested and stained with an APC-conjugated anti-human CD45 according to the manufacturer's instructions. For solid tumor cell lines, cellular viability was determined using the AlamarBlue kit (Invitrogen). About 10,000 cells in 100 μL of media containing 10% FBS were aliquoted into individual wells of a 96-well plate and treated with vehicle (DMSO) or compound in triplicate for 24 hours. Ten μL of AlamarBlue reagent was added to each well and incubated for 4 hours at 37° C. with 5% CO2. Fluorescence was measured with an excitation wavelength at 530 to 560 nm and emission wavelength at 590 nm using Spectramax M5 plate reader (Molecular Devices, Sunnyvale, Calif.). […]

SMILES: Cc1ccccc1-n1c(C(C)Nc2nc(N)nc3[nH]cnc23)nc2cccc(C)c2c1=O (centres unmarked) [Compound B, 2-(1-(2-amino-9H-purin-6-ylamino)ethyl)-5-methyl-3-o-tolylquinazolin-4(3H)-one]
- weights of thymi, liver, spleen, and kidneys (PTEN null T-ALL; Compound B for 7 days, versus vehicle control, P<0.01): significantly less
- WBC (PTEN null T-ALL; Compound B treatment for 7 days, by Day 4): significant reduction
- bioluminescent imaging signals (PTEN null T-ALL; Compound B treatment, Day 4, versus vehicle): dramatically lower
- apoptosis (sub-G0 population after propidium iodide staining) (PTEN null T-ALL; Compound B treatment, Day 4 through Day 7): increase in apoptosis
- median survival (PTEN null T-ALL; oral 10 mg/kg every 8 hours for 7 days, vehicle group 7.5 days): 45 days
- apoptosis (CCRF-CEM cells [1]): promoted apoptosis
- proliferation (CCRF-CEM cells [1]): prevented proliferation
- phosphorylation of GSK3β and mTOR (CCRF-CEM cells [2]; 0.25 to 10 μM): reduction
- expression of BIM (including the L and S isoforms) (CCRF-CEM cells [2]; Compound B treatment): enhanced expression
- phosphorylation of BAD (CCRF-CEM cells [2]; Compound B treatment): reduction
- Akt/PKB (Ser473) phosphorylation (CCRF-CEM cells [2]; […]): reduction and complete abrogation
- difference in luminescence, treated versus vehicle treated animals (CCRF-CEM xenografts): 5 fold
- median survival time (CCRF-CEM xenograft): 35 days
- viability of tumor cells (primary T-ALL tumors): reduced
